Values of other authors, collected in patent publication US20210024636A1, “COMPOSITIONS AND METHODS FOR TREATING SEXUAL DYSFUNCTION” (ChemistryRX, priority 2019, published 2021).

Legend:
[1] = system: human peripheral blood mononuclear cells; conditions: in vitro
[2] = system: T-cell adhesion to ICAM-1; conditions: human T-cell line, in vitro

Compound: CS(=O)(=O)c1cccc(C[C@H](NC(=O)c2c(Cl)cc3c(c2Cl)CCN(C(=O)c2ccc4ccoc4c2)C3)C(=O)O)c1 [lifitegrast]
- inhibition of secretion of inflammatory cytokines [1]: may inhibit secretion of inflammatory cytokines
- inhibition of T-cell adhesion to ICAM-1 [2]: may inhibit T-cell adhesion to ICAM-1
